From US12285403B2, “A2-73 as a therapeutic for insomnia, anxiety and agitation” (Anavex Life Sciences Corp., priority 2016, dated 2025)

What was measured:
[1] = test system: insomnia, anxiety or agitation; assay: Single-patient therapy Examples 1-10 (insomnia, anxiety, agitation); type: in vivo, human
Method: A person presents as suffering from maintenance insomnia for one year. They are started on oral A2-73 at 10 mg/day. […] They are currently maintained on 10 mg of A2-73 and is sleeping well. A person presents with anxiety of three years' duration. They are administered A2-73 at 20 mg oral per day every other day. […] They are maintained on this dosing schedule for 60 days. […] They are treated with 30 mg A2-73 oral daily for 30 days. […] They are currently maintained at that dosage and is not anxious. A person presents with MCI and reports maintenance insomnia for one year. They are started on oral A1-41 at 10 mg/day. […] They are currently maintained on 10 mg of A1-41 and is sleeping well. The patient is a person with diagnosed AD and reported anxiety of three years' duration. They are administered A19-144 at 20 mg oral per day every day for 90 days. […] They are chronically maintained on this dosing schedule. A person diagnosed with mild cognitive impairment presents as suffering from maintenance insomnia for one year. They are started on oral A2-73 at 50 mg/day. […] They are currently maintained on 50 mg of A2-73 daily and is sleeping well. A person diagnosed with Alzheimer's disease presents with insomnia/WASO and agitation and a systolic blood pressure of 145 mm Hg. They are started on oral A2-73 at 30 mg/day. […] They are also less agitated. Their results on all cognitive tests and HAM-D improve. They are currently maintained on 30 mg of A2-73 daily. A person diagnosed with Alzheimer's disease presents with insomnia/WASO and agitation. They are started on oral A2-73 at 100 mg/day. […] They are also less agitated. Their results on all cognitive tests and HAM-D improve. They are currently maintained on 100 mg of A2-73 every other day. A person diagnosed with Alzheimer's disease presents with insomnia/WASO and agitation. They are started on oral A19-144 at 50 mg/day. […] They are also less agitated. Their results on all cognitive tests and HAM-D improve. They are currently maintained on 50 mg of A19-144 daily. A person diagnosed with Alzheimer's disease presents with insomnia/WASO and agitation. They are started on oral A1-41 at 30 mg/day. […] They are also less agitated. Their results on all cognitive tests and HAM-D improve. They are currently maintained on 30 mg of A1-41 daily.

[2] = test system: muscarinic acetylcholine receptors; settings: 'is believed to bind'; cited from earlier work
sigma-1 receptors = sigma-1 receptors (Homo sapiens, UniProt Q99720); settings: 'is believed to bind'; cited from earlier work
sigma-1 receptors, sequence (Q99720 whole entry): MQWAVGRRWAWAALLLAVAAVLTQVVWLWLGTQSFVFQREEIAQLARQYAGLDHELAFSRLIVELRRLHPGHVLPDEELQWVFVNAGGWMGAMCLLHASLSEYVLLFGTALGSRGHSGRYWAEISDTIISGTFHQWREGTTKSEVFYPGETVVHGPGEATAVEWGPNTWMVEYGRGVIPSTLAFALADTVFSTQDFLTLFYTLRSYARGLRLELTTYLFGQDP

[3] = Example 10: oral 30 mg/day, 60 days
[4] = Example 9: oral 50 mg/day, 30 days

| SMILES | Sleep at follow up (maintenance insomnia) ([1]; Example 4: person with MCI, oral 10 mg/day, 30 days) | Agitation at follow up [1, 3] | Results on all cognitive tests and HAM-D [1, 3] | Sleep at follow up (insomnia/WASO) ([1]; Example 10: person with AD, oral 30 mg/day, 60 days) | Anxiety ([1]; Example 5: person with AD, 20 mg oral every day, after two days of dosing) | Agitation at follow up [1, 4] | Results on all cognitive tests and HAM-D [1, 4] | Sleep at follow up (insomnia/WASO) ([1]; Example 9: person with AD, oral 50 mg/day, 30 days) | Affinity for muscarinic acetylcholine receptors [2] | Affinity for sigma-1 receptors (sigma-1 receptors) |
| --- | --- | --- | --- | --- | --- | --- | --- | --- | --- | --- |
| CN(C)CC1COC(c2ccccc2)(c2ccccc2)C1.Cl (stereo not shown) [A1-41, tetrahydro-N,N-dimethyl-5,5-diphenyl-3-furanmethanamine hydrochloride] | sleeping well | less agitated | improve | sleeping well through the night |  |  |  |  |  |  |
| CNCC1CCOC1(c1ccccc1)c1ccccc1.Cl (stereo not shown) [A19-144, 1-(2,2-diphenyltetrahydrofuran-3-yl)-N-methylmethanamine hydrochloride] |  |  |  |  | Resolution of the anxiety | less agitated | improve | sleeping well through the night | low micromolar range | low micromolar range |
